{
  "source": "patent US20220056043A1",
  "about": "“NITROGEN-CONTAINING FUSED CYCLIC COMPOUND, PREPARATION METHOD THEREFOR AND USE THEREOF” (SICHUAN KELUN-BIOTECH BIOPHARMACEUTICAL CO., LTD., priority 2019, published 2022)",
  "key": {"hNLRP3 inflammasome": {"biological_target": "T1, hNLRP3 inflammasome (Homo sapiens, UniProt Q96P20)", "T1 construct": "endogenous in cells; host or cells: THP-1 cells, PMA-differentiated", "T1 sequence (Q96P20 whole entry)": "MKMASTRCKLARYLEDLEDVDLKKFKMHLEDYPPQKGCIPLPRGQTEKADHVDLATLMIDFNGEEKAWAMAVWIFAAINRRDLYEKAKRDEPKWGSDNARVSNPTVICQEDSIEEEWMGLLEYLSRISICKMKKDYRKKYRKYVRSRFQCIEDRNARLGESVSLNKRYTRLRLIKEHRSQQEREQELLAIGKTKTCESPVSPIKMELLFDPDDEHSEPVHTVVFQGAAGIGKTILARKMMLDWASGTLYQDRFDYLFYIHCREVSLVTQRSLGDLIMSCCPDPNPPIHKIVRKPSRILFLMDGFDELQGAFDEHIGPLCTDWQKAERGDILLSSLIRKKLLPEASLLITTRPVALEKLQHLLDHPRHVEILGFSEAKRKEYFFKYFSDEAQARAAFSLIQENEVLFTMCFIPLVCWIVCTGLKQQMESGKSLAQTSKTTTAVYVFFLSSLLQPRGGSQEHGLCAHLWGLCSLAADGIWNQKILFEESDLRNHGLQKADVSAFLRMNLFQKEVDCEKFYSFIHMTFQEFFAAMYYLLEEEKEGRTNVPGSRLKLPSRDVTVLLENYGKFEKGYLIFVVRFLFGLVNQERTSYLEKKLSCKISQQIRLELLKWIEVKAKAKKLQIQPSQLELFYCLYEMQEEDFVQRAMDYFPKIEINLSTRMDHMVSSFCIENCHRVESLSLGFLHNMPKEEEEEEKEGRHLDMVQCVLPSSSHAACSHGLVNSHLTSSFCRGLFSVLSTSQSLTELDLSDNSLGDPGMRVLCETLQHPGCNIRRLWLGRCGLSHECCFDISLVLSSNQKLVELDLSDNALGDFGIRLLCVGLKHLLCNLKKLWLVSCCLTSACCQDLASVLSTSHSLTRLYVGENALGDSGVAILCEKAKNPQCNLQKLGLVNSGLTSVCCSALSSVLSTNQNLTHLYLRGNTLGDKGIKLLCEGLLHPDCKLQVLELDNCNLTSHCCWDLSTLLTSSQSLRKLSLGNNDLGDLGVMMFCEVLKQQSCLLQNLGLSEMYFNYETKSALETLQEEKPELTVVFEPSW", "assay": "Agonistic effect on the expression of IL-1β in THP-1 cells after PMA-induced differentiation (HTRF)", "type": "cell-based", "details": "IL-1β level, PMA-differentiated THP-1 cells, 6 hours", "description": "Experimental Example 1: Agonistic Effect of the Compound of the Invention on the Expression of IL-1β in THP-1 Cells after PMA-Induced Differentiation\nIn this test, a HTRF (homogeneous time-resolved fluorescence) detection method was used to test the effect of the compound of the invention on the level of downstream cytokine IL-1β of NLRP3 to evaluate the agonistic effect of the compound on hNLRP3 inflammasome or hNLRP3 inflammasome pathway at a cellular level.\nReagent: RPMI 1640 (Hyclone); heat-inactivated FBS (fetal bovine serum) (Gibco); PMA (phorbol myristal acetate) (Beyotime)\nKit: IL-1β assay kit (CISIO)\n1) THP-1 cells in a logarithmic growth phase were seeded in a T75 culture flask at a density of 5×10^5 cells/well, and cultured in a cell incubator at 37° C., 5% CO2 for 24 hours, and then 1 μM PMA was used to induce THP-1 suspension cells to become adherent macrophages. The medium was RPMI 1640 containing 10% heat-inactivated FBS and 0.05 mM β-mercaptoethanol.\n2) The cells were induced and cultured for 24 hours. Then the adherent cells were trypsinized and centrifuged at 1000 rpm for 5 min. The supernatant was removed, and the cells were resuspended to a density of 2×10^6 cells/mL in RPMI 1640 medium containing 2% heat-inactivated FBS. 50 μL/well of cell resuspension was taken and spread on a 96-well plate such that the number of cells in each well was 1×10^5.\n3) An appropriate amount of 10 mM DMSO solution of the compound to be tested was taken and diluted to a concentration of 2× test concentration with RPMI 1640 medium containing 2% heat-inactivated FBS. 50 μL/well of the dilution was added to the cells in the 96-well plate, and mixed well. The plate was placed in a cell incubator at 37° C., 5% CO2 for 6 hours. The supernatant was collected, and the level of IL-1β was measured in accordance with the instructions of the IL-1β detection kit.\n4) EC50 was fitted by the GraphPad software log(agonist) vs. response—Variable slope four-parameter method."}, "[1]": {"tested_on": "CT26 mouse colon cancer subcutaneously transplanted tumor", "assay": "In vivo efficacy on bilaterally inoculated CT26 mouse colon cancer subcutaneously transplanted tumor", "details": "for tumor volume (mm^3) day 0 / tumor volume (mm^3) day 14: twice a week for two weeks; for tumor volume (mm^3) day 0: day 0 (grouping); for tumor volume (mm^3) day 14 / TGI (%): day 14", "procedure": "Experimental Example 7: In Vivo Efficacy of the Compounds of the Invention on Bilaterally Inoculated CT26 Mouse Colon Cancer Subcutaneously Transplanted Tumor\n1) CT26 mouse colon cancer cells were cultured in a monolayer in vitro. When the cells were in a logarithmic growth phase, the cells were collected by centrifugation and counted.\n2) 0.1 ml of PBS resuspension containing 3×10^5 CT26 cells was inoculated subcutaneously in the bilateral shoulder blades of mice respectively. When the bilateral scapular tumors of the mice grew to a volume of about 100 mm^3, the mice were randomly divided into 4 groups according to the bilateral tumor volumes, 8 mice in each group.\n3) Compound 115s was injected into the tumor at the right scapular tumor of mice at 10 μg/time, 50 μg/time, and 250 μg/time, respectively, twice a week for two consecutive weeks. The bilateral tumor volumes and the body weight of the animals were measured.\n4) Tumor inhibition rate, TGI (%), was calculated based on the tumor volumes to evaluate the inhibitory effect of Compound 115s on the growth of transplanted tumors in the mice. The calculation formula was: TGI (%)=100%−(TVt−TV0)/(CVt−CV0)×100%. When the tumor was regressing, the calculation formula was: TGI (%)=100%−(TVt−TV0)/TV0×100%, wherein TV0 was the average tumor volume of the tested compound group at the time of grouping; TVt was the average tumor volume of the tested compound group at the time of measurement on the t^th day; CV0 was the average tumor volume of the vehicle group at the time of grouping; and CVt was the average tumor volume of the vehicle group at the time of measurement on the t^th day. For statistical analysis of differences between the two groups, student's t-test was used to calculate the P value."}, "[2]": {"details": "administration side, 10 μg/time intratumoral"}, "[3]": {"details": "administration side, 50 μg/time intratumoral"}, "[4]": {"details": "administration side, 250 μg/time intratumoral"}, "[5]": {"details": "non-administration side, 10 μg/time intratumoral (other side)"}, "[6]": {"details": "non-administration side, 50 μg/time intratumoral (other side)"}, "[7]": {"details": "non-administration side, 250 μg/time intratumoral (other side)"}},
  "note": "Where a name gives a salt, the structure may show the parent alone.",
  "data": [
    {"compound": "Nc1cc(NCC(F)F)c2sc(-c3ccn[nH]3)cc2n1", "note": "[Compound 116s, N^7-(2,2-difluoroethyl)-2-(1H-pyrazol-5-yl)thieno[3,2-b]pyridine-5,7-diamine hydrochloride]", "values": [
      {"measurement": "EC50", "setting": "hNLRP3 inflammasome", "result": 0.05, "unit": "µM"}
    ]},
    {"compound": "CC(C)(CO)CNc1cc(N)nc2cc(-c3ccn[nH]3)sc12.Cl", "note": "[Compound 115s, 3-((5-amino-2-(1H-pyrazol-5-yl)thieno[3,2-b]pyridin-7-yl)amino)-2,2-dimethyl-1-propanol hydrochloride]", "values": [
      {"measurement": "tumor volume (mm^3) day 0", "setting": "[1]; [2]", "result": "74.63 ± 6.26", "unit": "mm^3"},
      {"measurement": "tumor volume (mm^3) day 14", "setting": "[1]; [2]", "result": "499.05 ± 211.28", "unit": "mm^3"},
      {"measurement": "TGI (%)", "setting": "[1]; [2]", "result": 77.46, "unit": "%"},
      {"measurement": "tumor volume (mm^3) day 0", "setting": "[1]; [3]", "result": "74.03 ± 4.69", "unit": "mm^3"},
      {"measurement": "tumor volume (mm^3) day 14", "setting": "[1]; [3]", "result": "61.66 ± 41.15", "unit": "mm^3"},
      {"measurement": "TGI (%)", "setting": "[1]; [3]", "result": 144.99, "unit": "%"},
      {"measurement": "tumor volume (mm^3) day 0", "setting": "[1]; [4]", "result": "74.00 ± 4.41", "unit": "mm^3"},
      {"measurement": "tumor volume (mm^3) day 14", "setting": "[1]; [4]", "result": "0.00 ± 0.00", "unit": "mm^3"},
      {"measurement": "TGI (%)", "setting": "[1]; [4]", "result": 200.00, "unit": "%"},
      {"measurement": "tumor inhibitory effect on the non-administration side tumors", "setting": "[1]; intratumoral injection at the other side, in words", "result": "significant dose-dependent tumor inhibitory effect"},
      {"measurement": "anti-tumor effect on the subcutaneous tumor at the administration side", "setting": "[1]; intratumoral injection, compared with the vehicle group, in words", "result": "significant dose-dependent anti-tumor effect"},
      {"measurement": "tumor inhibitory effect on bilateral CT26 subcutaneous tumors", "setting": "[1]; intratumoral injection, summary in words", "result": "significant dose-dependent tumor inhibitory effect"},
      {"measurement": "tumor volume (mm^3) day 0", "setting": "[1]; [5]", "result": "85.21 ± 7.40", "unit": "mm^3"},
      {"measurement": "tumor volume (mm^3) day 14", "setting": "[1]; [5]", "result": "1269.99 ± 140.11", "unit": "mm^3"},
      {"measurement": "TGI (%)", "setting": "[1]; non-administration side, 10 μg/time", "result": 38.94, "unit": "%"},
      {"measurement": "tumor volume (mm^3) day 0", "setting": "[1]; [6]", "result": "85.31 ± 6.01", "unit": "mm^3"},
      {"measurement": "tumor volume (mm^3) day 14", "setting": "[1]; [6]", "result": "869.87 ± 99.95", "unit": "mm^3"},
      {"measurement": "TGI (%)", "setting": "[1]; non-administration side, 50 μg/time", "result": 59.57, "unit": "%"},
      {"measurement": "tumor volume (mm^3) day 0", "setting": "[1]; [7]", "result": "85.17 ± 6.28", "unit": "mm^3"},
      {"measurement": "tumor volume (mm^3) day 14", "setting": "[1]; [7]", "result": "462.85 ± 52.91", "unit": "mm^3"},
      {"measurement": "TGI (%)", "setting": "[1]; non-administration side, 250 μg/time", "result": 80.54, "unit": "%"}
    ]},
    {"compound": "Nc1cc(NC2CCCC2)c2sc(-c3ccn[nH]3)cc2n1", "note": "[Compound 110s, N^7-cyclopentyl-2-(1H-pyrazol-5-yl)thieno[3,2-b]pyridine-5,7-diamine hydrochloride]", "values": [
      {"measurement": "EC50", "setting": "hNLRP3 inflammasome", "result": 0.03, "unit": "µM"}
    ]},
    {"compound": "CCC(CC)Nc1cc(N)nc2cc(-c3ccn[nH]3)sc12", "note": "[Compound 113s, N^7-(pent-3-yl)-2-(1H-pyrazol-5-yl)thieno[3,2-b]pyridine-5,7-diamine hydrochloride]", "values": [
      {"measurement": "EC50", "setting": "hNLRP3 inflammasome", "result": 0.01, "unit": "µM"}
    ]},
    {"compound": "COCCNc1cc(N)nc2cc(-c3ccn[nH]3)sc12", "note": "[Compound 100s, N^7-(2-methoxyethyl)-2-(1H-pyrazol-5-yl)thieno[3,2-b]pyridine-5,7-diamine hydrochloride]", "values": [
      {"measurement": "EC50", "setting": "hNLRP3 inflammasome", "result": 0.01, "unit": "µM"}
    ]},
    {"compound": "Nc1cc(NCC2CCOCC2)c2sc(-c3ccn[nH]3)cc2n1", "note": "[Compound 120s, 2-(1H-pyrazol-5-yl)-N^7-((tetrahydro-2H-pyran-4-yl)methyl)thieno[3,2-b]pyridine-5,7-diamine hydrochloride]", "values": [
      {"measurement": "EC50", "setting": "hNLRP3 inflammasome", "result": 0.03, "unit": "µM"}
    ]}
  ]
}
